Source: patent US20100267561A1, “HERBICIDAL PYRIDAZINONE DERIVATIVES” (priority 2007, published 2010)

Columns and labels:
Format in all cases: in vivo
[1] = test system: common chickweed (Stellaria media); test: Test E pre-/postemergence plant response; conditions: Preemergence, scale 0 to 100
How it was run: (§1)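 Seeds were planted and treated preemergence with compound formulated in a non-phytotoxic solvent mixture containing surfactant; postemergence sprays in the same formulation went onto plants 2 to 18 cm tall (1- to 4-leaf stage). After 14 to 21 days in a greenhouse, injury versus untreated controls was rated visually, 0 (no effect) to 100 (complete control).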

[2] = test system: Russian thistle (Salsola kali); test: Test E pre-/postemergence plant response; conditions: Preemergence, scale 0 to 100
How it was run: as §1

[3] = test system: Virginia (V.) dayflower (Commelina virginica); test: Test E pre-/postemergence plant response; conditions: scale 0 to 100
How it was run: as §1

[4] = test system: common sowthistle (Sonchus oleraceous); test: Test E pre-/postemergence plant response; conditions: scale 0 to 100
How it was run: as §1

[5] = test system: umbrella sedge (Cyperus difformis); test: Test D flooded paddy plant response; conditions: Flood, scale 0 to 100 (0 no effect, 100 complete control), 21 days
Excerpt: (§2) Three plastic pots (ca. 16-cm diameter) for each application rate were partially filled with sterilized Tama silt loam soil comprising a 35:50:15 ratio of sand, silt and clay and 2.6% organic matter. Separate plantings for each of the three pots were as follows. Seeds from the U.S. of ducksalad (Heteranthera limosa), umbrella sedge (Cyperus difformis) and purple redstem (Ammannia coccinea), were planted into one 16-cm pot for each rate. Seeds from the U.S. of rice flatsedge (Cyperus iria), bearded (Brdd.) sprangletop (Leptochloa fascicularis), one stand of 9 or 10 water-seeded rice seedlings (Oryza sativa cv. ‘Japonica—M202’), and one stand of 6 transplanted rice seedlings (Oryza sativa cv. ‘Japonica—M202’) were planted into one 16-cm pot for each rate. Seeds from the U.S. of barnyardgrass (Echinochloa crus-galli), late watergrass (Echinochloa oryzicola), early watergrass (Echinochloa oryzoides) and junglerice (Echinochloa colona) were planted into one 16-cm pot for each rate. Plantings were sequential so that crop and weed species were at the 2.0 to 2.5-leaf stage at time of treatment.
(§3) Potted plants were grown in a greenhouse with day/night temperature settings of 30/27° C., and supplemental balanced lighting was provided to maintain a 16-hour photoperiod. Test pots were maintained in the greenhouse until test completion.
(§4) At time of treatment, test pots were flooded to 3 cm above the soil surface, treated by application of test compounds directly to the paddy water, and then maintained at that water depth for the duration of the test. Effects of treatments on rice and weeds were visually evaluated by comparison to untreated controls after 21 days. Plant response ratings, summarized in Table D, are based on a scale of 0 to 100 where 0 is no effect and 100 is complete control. A dash (-) response means no test result.

[6] = test system: rice flatsedge (Cyperus iria); test: Test D flooded paddy plant response; conditions: Flood, scale 0 to 100 (0 no effect, 100 complete control), 21 days
Excerpt: as §2, §3, §4

[7] = test system: late watergrass (Echinochloa oryzicola); test: Test D flooded paddy plant response; conditions: Flood, scale 0 to 100 (0 no effect, 100 complete control), 21 days
Excerpt: as §2, §3, §4

[8] = test system: transplanted rice seedlings (Oryza sativa cv. ‘Japonica—M202’); test: Test D flooded paddy plant response; conditions: Flood, scale 0 to 100 (0 no effect, 100 complete control), 21 days
Excerpt: as §2, §3, §4

[9] = test system: purple redstem (Ammannia coccinea); test: Test D flooded paddy plant response; conditions: Flood, scale 0 to 100 (0 no effect, 100 complete control), 21 days
Excerpt: as §2, §3, §4

[10] = test system: ducksalad (Heteranthera limosa); test: Test D flooded paddy plant response; conditions: Flood, scale 0 to 100 (0 no effect, 100 complete control), 21 days
Excerpt: as §2, §3, §4

[11] = test system: early watergrass (Echinochloa oryzoides); test: Test D flooded paddy plant response; conditions: Flood, scale 0 to 100 (0 no effect, 100 complete control), 21 days
Excerpt: as §2, §3, §4

[12] = test system: bearded (Brdd.) sprangletop (Leptochloa fascicularis); test: Test D flooded paddy plant response; conditions: Flood, scale 0 to 100 (0 no effect, 100 complete control), 21 days
Excerpt: as §2, §3, §4

[13] = test system: barnyardgrass (Echinochloa crus-galli); test: Test D flooded paddy plant response; conditions: Flood, scale 0 to 100 (0 no effect, 100 complete control), 21 days
Excerpt: as §2, §3, §4

CCCc1cc(-c2ccc(Cl)cc2)nn1-c1c(O)cnn(C)c1=O [Compound 43]
Plant response rating, Chickweed ([1]; 16 g ai/ha): 0
Plant response rating, Chickweed ([1]; 31 g ai/ha): 0
Plant response rating, Chickweed ([1]; 62 g ai/ha): 0
Plant response rating, Thistle, Russian ([2]; 16 g ai/ha): 0
Plant response rating, Thistle, Russian ([2]; 31 g ai/ha): 0
Plant response rating, Thistle, Russian ([2]; 62 g ai/ha): 0
Plant response rating, Dayflower, V. ([3]; 16 g ai/ha, Preemergence): 0
Plant response rating, Dayflower, V. ([3]; 31 g ai/ha, Preemergence): 0
Plant response rating, Dayflower, V. ([3]; 62 g ai/ha, Preemergence): 0
Plant response rating, Dayflower, V. ([3]; Postemergence, 8 g ai/ha): 0
Plant response rating, Dayflower, V. ([3]; Postemergence, 16 g ai/ha): 0
Plant response rating, Dayflower, V. ([3]; Postemergence, 31 g ai/ha): 0
Plant response rating, Dayflower, V. ([3]; Postemergence, 62 g ai/ha): 0
Plant response rating, Sowthistle ([4]; 16 g ai/ha, Preemergence): 0
Plant response rating, Sowthistle ([4]; 31 g ai/ha, Preemergence): 0
Plant response rating, Sowthistle ([4]; 62 g ai/ha, Preemergence): 0
Plant response rating, Sowthistle ([4]; Postemergence, 8 g ai/ha): 0
Plant response rating, Sowthistle ([4]; Postemergence, 16 g ai/ha): 0
Plant response rating, Sowthistle ([4]; Postemergence, 31 g ai/ha): 0
Plant response rating, Sowthistle ([4]; Postemergence, 62 g ai/ha): 0
Plant response rating, Sedge, Umbrella ([5]; 16 g ai/ha): 0
Plant response rating, Sedge, Umbrella ([5]; 32 g ai/ha): 0
Plant response rating, Sedge, Umbrella ([5]; 64 g ai/ha): 0
Plant response rating, Sedge, Umbrella ([5]; 125 g ai/ha): 0
Plant response rating, Sedge, Umbrella ([5]; 250 g ai/ha): 0
Plant response rating, Flatsedge, Rice ([6]; 16 g ai/ha): 0
Plant response rating, Flatsedge, Rice ([6]; 32 g ai/ha): 0
Plant response rating, Flatsedge, Rice ([6]; 64 g ai/ha): 0
Plant response rating, Flatsedge, Rice ([6]; 125 g ai/ha): 0
Plant response rating, Flatsedge, Rice ([6]; 250 g ai/ha): 0
Plant response rating, Watergrass, Late ([7]; 16 g ai/ha): 0
Plant response rating, Watergrass, Late ([7]; 32 g ai/ha): 0
Plant response rating, Watergrass, Late ([7]; 64 g ai/ha): 30
Plant response rating, Watergrass, Late ([7]; 125 g ai/ha): 65
Plant response rating, Watergrass, Late ([7]; 250 g ai/ha): 100
Plant response rating, Rice, Transplanted ([8]; 16 g ai/ha): 0
Plant response rating, Rice, Transplanted ([8]; 32 g ai/ha): 0
Plant response rating, Rice, Transplanted ([8]; 64 g ai/ha): 0
Plant response rating, Rice, Transplanted ([8]; 125 g ai/ha): 10
Plant response rating, Rice, Transplanted ([8]; 250 g ai/ha): 35
Plant response rating, Redstem, Purple ([9]; 16 g ai/ha): 0
Plant response rating, Redstem, Purple ([9]; 32 g ai/ha): 0
Plant response rating, Redstem, Purple ([9]; 64 g ai/ha): 0
Plant response rating, Redstem, Purple ([9]; 125 g ai/ha): 0
Plant response rating, Redstem, Purple ([9]; 250 g ai/ha): 0
Plant response rating, Ducksalad ([10]; 16 g ai/ha): 0
Plant response rating, Ducksalad ([10]; 32 g ai/ha): 0
Plant response rating, Ducksalad ([10]; 64 g ai/ha): 0
Plant response rating, Ducksalad ([10]; 125 g ai/ha): 0
Plant response rating, Ducksalad ([10]; 250 g ai/ha): 0
Plant response rating, Watergrass, Early ([11]; 16 g ai/ha): 0
Plant response rating, Watergrass, Early ([11]; 32 g ai/ha): 0
Plant response rating, Watergrass, Early ([11]; 64 g ai/ha): 60
Plant response rating, Watergrass, Early ([11]; 125 g ai/ha): 70
Plant response rating, Watergrass, Early ([11]; 250 g ai/ha): 100
Plant response rating, Sprangletop, Brdd. ([12]; 16 g ai/ha): 0
Plant response rating, Sprangletop, Brdd. ([12]; 32 g ai/ha): 0
Plant response rating, Sprangletop, Brdd. ([12]; 64 g ai/ha): 0
Plant response rating, Sprangletop, Brdd. ([12]; 125 g ai/ha): 0
Plant response rating, Sprangletop, Brdd. ([12]; 250 g ai/ha): 20
Plant response rating, Barnyardgrass ([13]; 16 g ai/ha): 0
Plant response rating, Barnyardgrass ([13]; 32 g ai/ha): 20
Plant response rating, Barnyardgrass ([13]; 64 g ai/ha): 60
Plant response rating, Barnyardgrass ([13]; 125 g ai/ha): 100
Plant response rating, Barnyardgrass ([13]; 250 g ai/ha): 100
